Data published in US20050175696A1, “Drug granule coatings that impart smear resistance during mechanical compression” (priority 2003, published 2005).
≈ marks a conversion by molar mass, not a printed value.

Assay: Equilibrium solubility of topiramate in de-ionized water and in aqueous surfactant solutions
Assay type: physicochemical
Procedure: The resulting solution saturated with the pharmaceutical agent is then filtered, typically under pressure through a 0.8-micron Millipore filter, and the concentration of the pharmaceutical agent in the solution is measured by any appropriate analytical method including gravimetric, ultraviolet spectrophometry, chromatography, and the like. The solubility of the pharmaceutical agent is measured at equilibrium.
A drug composition of the present invention was prepared as follows. Aqueous solutions of five surfactants were prepared. The selected surfactants were four grades of ethylene oxide/propylene oxide/ethylene oxide (LUTROL grades F127, F87, F 108, and F68) and PEG-40 stearate (MYRJ 52). Solutions were made at concentrations of 1, 5, and 15 weight percent. The aqueous surfactant blends solutions were chilled as necessary to promote complete dissolution of the surfactant prior to drug solubility studies.
The aqueous surfactant solutions were equilibrated to constant temperature in a 37° C. water bath. Then, neat topiramate drug was added slowly with stirring in about 10 mg increments to the surfactant solutions until no more drug dissolved. […] The resulting saturated solutions of drug were filtered through 0.8 micron filters and analyzed for drug concentration by refractive index chromatography. […]

- solubility (37 °C, thermodynamic from solid, de-ionized water, no temperature printed at the place, read-out: Solubility of neat topiramate in de-ionized water): ~12 mg/mL (≈ 35.4 mM)
- Topiramate solubility in water in the presence of surfactant, compared to control without surfactant (LUTROL F127, F87, F108, F68 and MYRJ 52 solutions at 1, 5 and 15 weight percent, 37° C.): increased by each surfactant
Structure (SMILES): CC1(C)O[C@@H]2[C@@H](CO[C@@]3(COS(N)(=O)=O)OC(C)(C)O[C@@H]23)O1 [topiramate]
